Where two headings read alike, the source gives them in different places.
How the values were obtained:
[1] = tested on: Gram-positive (GP) species; experiment: CLSI broth microdilution / anaerobic agar dilution MIC, spectrum study; format: cell-based; conditions: all GP isolates
Procedure: (§1) CLSI broth microdilution (BMD) and anaerobic agar dilution (AD) methods were performed. Modifications of standard test methods included adding 10% human serum, adjusting the medium pH to 5, 6, and 8, and synergy was assessed by the checkerboard method.

[2] = tested on: E. brevis, M. catarrhalis and N. meningitidis; experiment: CLSI MIC, spectrum study; format: cell-based
Procedure: as §1

[3] = tested on: GN species; experiment: CLSI MIC, spectrum study; format: cell-based; conditions: all GN except E. brevis, M. catarrhalis, N. meningitidis
Procedure: as §1

[4] = tested on: WT isolates; experiment: MIC with 10% human serum or adjusted medium pH; format: cell-based
Procedure: as §1

[5] = tested on: WT isolates; experiment: Single-step mutational rates to resistance; format: cell-based
[6] = tested on: S. aureus; experiment: Reference broth microdilution susceptibility testing (CLSI M07-A8), Canadian isolates; format: cell-based; conditions: for number of isolates inhibited: Staphylococcus aureus; for R rate: overall S. aureus population
Source text: Methods: To determine a contemporary susceptibility (S) spectrum pattern, 153 GP isolates (123 S. aureus, 15 coagulase-negative staphylococci [CoNS] and 15 S. pyogenes [SPYO]) were collected from 5 Canadian medical centers between 2001 and 2006.

[7] = tested on: methicillin-resistant S. aureus (MRSA) strain USA 300; experiment: Hollow fiber pharmacodynamic model, resistance potential; format: cell-based; conditions: 600 mg q12h
Procedure: A hollow fiber model was used to evaluate CEM-102 resistance potential in methicillin-resistant S. aureus (MRSA) strain USA 300 (Network of Antimicrobial Resistance in Staphylococcus aureus (NARSA), Chantilly, Va.). USA 300 is a highly virulent strain of MRSA and is the most common community-associated MRSA isolate in the USA. MIC values were determined in accordance with Clinical and Laboratory Standards Institute (CLSI).
The hollow fiber model comprised a two-compartment hollow fiber model (Louie et al. Antimicrob Agents Chemother 52:2486-2496(2008)) consisting of a volume of 15 mL in the central compartment, with multiple ports for the removal of broth, delivery of antibiotics, and collection of bacterial and antimicrobial samples. […] All experiments were performed in duplicate.
Hollow fibers contain 15 ml of media was prepared and inoculated with 10^6 colony forming units (CFU)/mL USA 300 bacteria. One of three different dosing regimens of […] was then applied to the fibers: (1) […] q12h; (2) 1200 mg/ml×2, followed by […], q12h; (3) 1500 mg/ml×2, followed by […], q12h.

[8] = tested on: S. aureus; experiment: MIC of S. aureus in humans (description); format: cell-based; conditions: Staphylococcus aureus
[9] = cited from earlier work
[10] = tested on: WT isolates; experiment: Synergy by the checkerboard method; format: cell-based; conditions: FA/co-drug combination, count
Procedure: as §1

[11] = tested on: 217 S. aureus Canadian isolates; format: cell-based; conditions: Canadian S. aureus isolates, comparators
Procedure: as §1

Compound: CC(=O)O[C@H]1C[C@@]2(C)[C@@H](C[C@@H](O)[C@H]3[C@@]4(C)CC[C@@H](O)[C@@H](C)[C@@H]4CC[C@@]32C)/C1=C(\CCC=C(C)C)C(=O)O [FA, Fusidic acid]
- MIC values, range [1]: 0.06 to 32 µg/mL
- MIC [2]: 0.12 to 0.5 µg/mL
- MIC [3]: ≥ 2 µg/mL
- increase in MIC results ([4]; 10% serum added): 4 fold
- effect of lower media pH on protein binding effects ([4]; medium pH 5.0-6.0): decreased negative protein binding effects
- single-step mutational rate ([5]; 4×MIC): 1.2×10^−6
- single-step mutational rate ([5]; 16×MIC): 9.8×10^−8
- number of isolates inhibited ([6]; years tested 2001-2002, read-out: No. inhibited at MIC (μg/mL) of: 0.06): 8 µg/mL
- number of isolates inhibited ([6]; years tested 2001-2002, read-out: No. inhibited at MIC (μg/mL) of: 0.12): 29 µg/mL
- number of isolates inhibited ([6]; years tested 2001-2002, read-out: No. inhibited at MIC (μg/mL) of: 0.25): 1 µg/mL
- number of isolates inhibited ([6]; years tested 2001-2002, read-out: No. inhibited at MIC (μg/mL) of: ≧2): 2 µg/mL
- number of isolates inhibited ([6]; years tested 2003-2004, read-out: No. inhibited at MIC (μg/mL) of: 0.06): 6 µg/mL
- number of isolates inhibited ([6]; years tested 2003-2004, read-out: No. inhibited at MIC (μg/mL) of: 0.12): 33 µg/mL
- number of isolates inhibited ([6]; years tested 2003-2004, read-out: No. inhibited at MIC (μg/mL) of: ≧2): 3 µg/mL
- number of isolates inhibited ([6]; years tested 2005-2006, read-out: No. inhibited at MIC (μg/mL) of: 0.06): 2 µg/mL
- number of isolates inhibited ([6]; years tested 2005-2006, read-out: No. inhibited at MIC (μg/mL) of: 0.12): 32 µg/mL
- number of isolates inhibited ([6]; years tested 2005-2006, read-out: No. inhibited at MIC (μg/mL) of: 0.25): 2 µg/mL
- number of isolates inhibited ([6]; years tested 2005-2006, read-out: No. inhibited at MIC (μg/mL) of: ≧2): 5 µg/mL
- outcome in hollow fiber model [7]: regrowth and development of resistance by 24 h and 48 h
- MIC [8]: 2.5 µg/mL
- protein binding [9]: 95-97%

Compound: Cc1onc(-c2ccccc2)c1C(=O)N[C@@H]1C(=O)N2[C@@H]1SC(C)(C)[C@@H]2C(=O)O [Oxacillin]
- Additive [10]: 1
- Antagonism [10]: 0
- Indeterminate [10]: 1
- Indifferent [10]: 3
- Synergy: Complete [10]: 0
- Synergy: Partial [10]: 1

Compound: CO[C@H]1/C=C/O[C@@]2(C)Oc3c(C)c(O)c4c(O)c(c(/C=N/N5CCN(C)CC5)c(O)c4c3C2=O)NC(=O)/C(C)=C\C=C\[C@H](C)[C@H](O)[C@@H](C)[C@@H](O)[C@@H](C)[C@H](OC(C)=O)[C@@H]1C [Rifampin, rifampin]
- Additive [10]: 1
- Antagonism [10]: 0
- Indeterminate [10]: 0
- Indifferent [10]: 0
- Synergy: Complete [10]: 0
- Synergy: Partial [10]: 5

Compound: CN[C@H](CC(C)C)C(=O)N[C@H]1C(=O)N[C@@H](CC(N)=O)C(=O)N[C@H]2C(=O)N[C@H]3C(=O)N[C@H](C(=O)N[C@H](C(=O)O)c4cc(O)cc(O)c4-c4cc3ccc4O)[C@H](O)c3ccc(c(Cl)c3)Oc3cc2cc(c3O[C@@H]2O[C@H](CO)[C@@H](O)[C@H](O)[C@H]2O[C@H]2C[C@](C)(N)[C@H](O)[C@H](C)O2)Oc2ccc(cc2Cl)[C@H]1O [Vancomycin]
- Additive [10]: 2
- Antagonism [10]: 0
- Indeterminate [10]: 0
- Indifferent [10]: 4
- Synergy: Complete [10]: 0
- Synergy: Partial [10]: 0

Compound: CCC[C@@H]1C[C@@H](C(=O)N[C@@H]([C@H]2O[C@H](SC)[C@H](O)[C@@H](O)[C@H]2O)[C@H](C)Cl)N(C)C1 [clindamycin]
- resistance rates [11]: 30.9%
- R rate [6]: 28.5%

Compound: CC[C@H]1OC(=O)[C@H](C)[C@@H](O[C@H]2C[C@@](C)(OC)[C@@H](O)[C@H](C)O2)[C@H](C)[C@@H](O[C@@H]2O[C@H](C)C[C@H](N(C)C)[C@H]2O)[C@](C)(O)C[C@@H](C)C(=O)[C@H](C)[C@@H](O)[C@]1(C)O [erythromycin]
- resistance rates [11]: 52.1%
- R rate [6]: 52.0%

Compound: C[C@H]1COc2c(N3CCN(C)CC3)c(F)cc3c(=O)c(C(=O)O)cn1c23 [levofloxacin]
- Additive [10]: 0
- Antagonism [10]: 0
- Indeterminate [10]: 2
- Indifferent [10]: 4
- Synergy: Complete [10]: 0
- Synergy: Partial [10]: 0

Compound: gentamicin
- Additive [10]: 3
- Antagonism [10]: 0
- Indeterminate [10]: 0
- Indifferent [10]: 1
- Synergy: Complete [10]: 1
- Synergy: Partial [10]: 1
